These results are taken from article PMC10420772, “Characteristics of alanine racemase in Lactobacillus sakei ZH‐2 strain” (Food Science & Nutrition, 2023).

For series [1], the target named is T1, rALRase (recombinant alanine racemase of Lactobacillus sakei ZH-2) (Latilactobacillus sakei, UniProt Q38V64, T117A).
T1 construct: gene alr; pCold I in E. coli BL21, His-tag purified, tag removed with Factor Xa
As to the kind of experiment: racemase activity with and without PLP, D-amino acid oxidase/LDH-coupled. The class given is biochemical. To be noted: L-alanine substrate; 10 mM PLP in the standard assay, pH 9.0.

Substrate in the series “purified protein”: C[C@H](N)C(=O)O
As to the kind of experiment: purified protein. The note with it: L-alanine 0.1-50 mM, L to D direction, standard assay 50 mM CHES-NaOH pH 9.0, 10 mM PLP, 37 °C.

Take `Cc1ncc(COP(=O)(O)O)c(C=O)c1O` [pyridoxal phosphate]: the “fold activity with PLP versus without” value in series [1] is on record as 1.5–2 times.

B1: rALRase (recombinant alanine racemase of Lactobacillus sakei ZH-2) (Latilactobacillus sakei subsp. sakei 23K; T117A) (protein)
chain: MTVGYLRPTRILVDQNAIYENIQNELKHLEGTDTVIFPVLKANAYGHGLIPVAEAAQAAGAAGFCVALLDEALALRRANFTEPILVLGITQPSEIELAAANQISLTVGSLEWLQEAAAIAQQVPYLHPVPIHLSIDSGMGRIGMRDEAELLAAYTFIKAHSDYFDFEGVFTHFATADDPDDTYFKEQSARFNQLMTALPERPRFVHVSNSATSLWHAACNGNIIRMGISLYGLNPSGNAIPDLPYPLKQALGIESELVFVKQVAAGTKIGYGATYEASEGEWIGTIPMGYADGWLRRMQGSTVLVDGQRCEIVGRICMDQMMIRLPKRYPVGTKVVFVGKSGDDEITLQEVADYADTIHYEIICDLSDRIPRVYTGLNEH
With B1, the Km in “purified protein” turned out to be 1320 µM.
